In patent publication US20080311099A1, “Pyridoxal-5-Phosphate and Related Compounds in Combination With Therapeutic Cardiovascular Compounds for Treating Angina” (MEDICURE INTERNATIONAL INC., priority 2004, published 2008):

How the values were obtained:
[1] = system: isolated non-ischemic working rat heart; assay: Glucose oxidation rates in isolated non-ischemic working rat heart ([14C] glucose, 14CO2 production); details: 60 minutes aerobic perfusion, compound added about 5 minutes into the aerobic period; saline control 1580±183
Protocol: The goal was to determine if […] altered glucose oxidation rates or cardiac function in the isolated non-ischemic working rat heart model. This was achieved by subjecting rat hearts to 60 minutes of aerobic perfusion. […] was added about 5 minutes into the aerobic period and the effects of […] on glucose metabolism was determined during the aerobic period. […] Rat hearts were cannulated for isolated working heart perfusions as described previously (Lopaschuk et al., J Pharmacol Exp Ther. 1993 January;264(1):135-44). In brief, male Sprague-Dawley rats (0.3-0.35 kg) were anesthetized with pentobarbital sodium (60 mg/kg i. p.). The hearts were quickly excised, the aorta was cannulated, and a retrograde perfusion at 37° C. was initiated at a hydrostatic pressure of 60 mm Hg. Hearts were trimmed of excess tissue, and the pulmonary artery and the opening to the left atrium were then cannulated. […] Spontaneously beating hearts were used in all perfusions, heart rate and aortic pressure were measured with a Biopac Systems Inc. blood pressure transducer connected to the aortic outflow line. Cardiac output and aortic flow were measured with Transonic […] ultrasonic flow probes in the preload and afterload lines, respectively. Coronary flow was calculated as the difference between cardiac output and aortic flow. […]

[2] = Animal models for treatment of stress-induced angina (canine model of myocardial ischemia, canine model of exertional dysfunction, isolated perfused rat heart model of low flow ischemia); format: in vivo; details: compared with untreated or sham treated control animals
Description: The canine model of myocardial ischemia, the canine model of exertional dysfunction, and the isolated perfused rate heart model of low flow ischemia, as previously and elsewhere described, is used to determine the effectiveness of P5P, pyridoxal, pyridoxine, and the compounds synthesized in Examples 1-24, to determine effectiveness of these compounds in treatment of angina.
The animal model experiments of Example 26 are repeated, this time with the combination treatment groups as elucidated in Examples 28, 29 and 30.

[3] = water, alcohol, and ether; cited from earlier work
[4] = Treatment of stress-induced angina in patients (P5P, pyridoxine, derivatives; alone and in combination therapies); format: in vivo, human
Protocol: Patients with a history of exercise induced angina are treated with P5P either before or after the onset of angina. Several measures are used to test the effectiveness of P5P for the treatment of angina including the time to onset of angina, exercise duration, time to 1 mm ST depression, and patient pain evaluation.
The experiment of Example 25 is repeated, this time testing combination therapies.
The Experiments of Example 28 are repeated, this time using pyridoxine instead of P5P.

[5] = patients with a history of exercise induced angina, treated before or after the onset of angina

SMILES: O=C(O)C(Cl)Cl [DCA, dichloroacetic acid, reference compound]
- glucose oxidation rates [1]: 2422±140

SMILES: Cc1ncc(COP(=O)(O)O)c(C=O)c1O [Example P5P, 3-hydroxy-2-methyl-5-[(phosphonooxy)methyl]-4-pyridine-carboxaldehyde]
- symptoms and levels of angina [2]: significantly lower symptoms and levels of angina
- solubility [3]: essentially insoluble in water, alcohol, and ether
- glucose oxidation rates [1]: 2253±230
- exercise duration [4, 5]: increased
- onset to angina (time to onset of angina) [4, 5]: diminished
- patient pain (patient pain evaluation) [4, 5]: diminished
- time to 1 mm ST depression [4, 5]: diminished
- angina outcomes, treatment alone ([4]; patients, P5P treatment alone (Example 28)): improves angina outcomes

SMILES: Cc1ncc(CO)c(C=O)c1O [pyridoxal]
- symptoms and levels of angina [2]: significantly lower symptoms and levels of angina

SMILES: Cc1ncc(CO)c(CO)c1O [pyridoxine, 2-methyl-3-hydroxy-4,5-di(hydroxymethyl)pyridine]
- symptoms and levels of angina [2]: significantly lower symptoms and levels of angina
